Assay results: patent publication US12714683B2, “Treatment of CNS disorders with sleep disturbances” (University of Copenhagen, priority 2019, dated 2026)

Tests used:
[1] = test system: DTA narcolepsy mouse model; experiment: DTA mouse model of narcolepsy, sleep-wake EEG/EMG and cataplexy; assay type: in vivo; conditions: two-way ANOVA, p=0.0017, n=5-6; FIG. 3
Excerpt: (§1) Using the DTA narcolepsy mouse model we are determining changes in sleepwake EEG/EMG patterns (including cataplexy) at different time points (1 day to 3 weeks) under the influence of a compound of Formula I (Ph-HTBA). After drug cessation, EEG/EMG changes are then further mapped for up to 4 weeks. Under anesthesia with isoflurane (2% to 2.5% in O2) electrodes are placed in the scull and neck muscles of the mice. After 5-10 days recovery the electrodes are connected to a recording system, and EEG/EMG signals are recorded with synchronised video recordings. From the data, sleep/wake parameters and cataplexy episodes are scored and calculated FIG. 3).

[2] = test system: mouse model of narcolepsy type 1; conditions: Black et al. J Neurosci 2014; cited from earlier work
[3] = test system: hypocretin knock-out mouse model; experiment: Hypocretin knock-out mouse model of narcolepsy, sleep-wake EEG/EMG and cataplexy; assay type: in vivo; conditions: for cataplexy: mixed-effects model with post hoc Sidak, FIG. 4
Excerpt: as §1, with “hypocretin knock-out” for “DTA narcolepsy”, “determine” for “are determining”, “sleep-wake” for “sleepwake”, “compound (HOCPCA)” for “compound”, “I.” for “I (Ph-HTBA).”, “(FIG. 4-5).” for “FIG. 3).”

CaMK2a [4] = target: T1, CaMK2a (Mus musculus, UniProt P11798); experiment: Mouse brain 3H-HOCPCA autoradiography (Angelman syndrome Ube3a m-/p+ vs wild-type brain slices); assay type: binding; conditions: Ube3a m-/p+ (HET, Angelman syndrome) mice vs WT; 1 nM radioligand; most pronounced in hippocampus; FIG. 1
T1 construct: mouse brains from either (Ube3a^m−/p+) or wildtype mice, were dissected, sliced on a cryostat; from tissue; host or cells: mouse brain slices (Ube3a m-/p+ and wild-type)

rat CaMK2a = experiment: 3H-HOCPCA filtration binding to recombinant wild-type or mutated CaMK2a expressed in HEK293T cells; conditions: hub domain mutations Arg433Gln, Arg453Gln, Arg469Cys/Arg469Gln; HEK whole cell homogenates; expression confirmed by WB; FIG. 2
Protocol: ^3H-HOCPCA Binding to Recombinant CaMK2a Expressed in HEK293T Cells
HEK293T cells were cultured using standard conditions, using Dulbecco's modified Eagle Medium with GlutaMax, 10% fetal bovine serum and 1% penicillin-streptomycin, and incubated at 37° C. in a humidified atmosphere of […] and 5% CO2. Site-directed mutagenesis was done using point mutations and performed by GenScript USA Inc. Cells were transfected with wild-type or mutated cmyc-tagged rat CaMK2a (Origene construct RR201121), using polyethimine, linear, MW 25000 (Polysciences Inc., Warrington, PA, USA). Whole cell homogenates were prepared 48 hr post-transfection by washing the cells with ice-cold 1×PBS and harvesting by scraping. Cells were collected and centrifuged for 10 min at 1000×g. Cell pellets were resuspended in ice-cold 1×PBS and homogenized using 2×1 mm zirkonium beads in a bullet blender for 20 s at max speed (NextAdvance, NY, USA). Homogenates were cleared by centrifugation (10 min, 4° C., […]). Protein concentration was determined using the Bradford protein assay. […] Nonspecific binding was determined with 1-10 mM GHB. […] The dried filters were added scintillation liquid and radioactivity measured on a Tricarb 2100 Scintillation counter (Packard). […]
Total expression levels of CaMK2a were assessed by Western blot with anti-myc-Alexa488 (MA1980-A488, ThermoFisher Scientific). […]

CaMK2a [5] = target: CaMK2a (Homo sapiens, UniProt Q9UQM7); conditions: cited from earlier work
GABAB receptors = GABAB receptors (Homo sapiens, UniProt Q9UBS5); conditions: cited from earlier work
Chain of GABAB receptors (Q9UBS5 15-961 limits assumed): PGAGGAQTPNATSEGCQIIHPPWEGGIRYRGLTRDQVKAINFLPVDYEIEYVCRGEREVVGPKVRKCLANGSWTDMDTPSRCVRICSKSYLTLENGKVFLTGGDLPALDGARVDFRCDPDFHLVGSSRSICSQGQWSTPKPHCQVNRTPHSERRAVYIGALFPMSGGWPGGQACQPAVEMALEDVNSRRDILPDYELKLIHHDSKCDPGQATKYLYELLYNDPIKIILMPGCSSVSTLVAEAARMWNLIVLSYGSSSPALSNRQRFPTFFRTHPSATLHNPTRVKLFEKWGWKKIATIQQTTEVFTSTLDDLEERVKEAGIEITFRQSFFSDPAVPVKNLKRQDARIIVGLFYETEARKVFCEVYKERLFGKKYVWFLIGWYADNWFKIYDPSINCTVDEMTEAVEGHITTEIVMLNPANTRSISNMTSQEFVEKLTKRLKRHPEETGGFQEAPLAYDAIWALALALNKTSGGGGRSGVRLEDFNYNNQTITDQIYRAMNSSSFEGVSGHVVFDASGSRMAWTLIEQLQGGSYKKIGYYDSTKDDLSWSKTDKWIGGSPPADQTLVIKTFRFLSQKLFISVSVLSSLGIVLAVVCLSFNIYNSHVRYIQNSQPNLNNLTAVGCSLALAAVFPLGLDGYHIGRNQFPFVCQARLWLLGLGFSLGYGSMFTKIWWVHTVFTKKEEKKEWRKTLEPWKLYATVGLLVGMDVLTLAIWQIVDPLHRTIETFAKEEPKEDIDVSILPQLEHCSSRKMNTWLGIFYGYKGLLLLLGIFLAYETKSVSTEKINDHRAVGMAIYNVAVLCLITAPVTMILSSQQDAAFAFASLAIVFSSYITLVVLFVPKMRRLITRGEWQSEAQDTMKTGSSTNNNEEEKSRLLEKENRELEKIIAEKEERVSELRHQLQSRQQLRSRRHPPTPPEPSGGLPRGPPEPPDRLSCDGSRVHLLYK
Chain of GABAB receptors (O75899 42-941 partner): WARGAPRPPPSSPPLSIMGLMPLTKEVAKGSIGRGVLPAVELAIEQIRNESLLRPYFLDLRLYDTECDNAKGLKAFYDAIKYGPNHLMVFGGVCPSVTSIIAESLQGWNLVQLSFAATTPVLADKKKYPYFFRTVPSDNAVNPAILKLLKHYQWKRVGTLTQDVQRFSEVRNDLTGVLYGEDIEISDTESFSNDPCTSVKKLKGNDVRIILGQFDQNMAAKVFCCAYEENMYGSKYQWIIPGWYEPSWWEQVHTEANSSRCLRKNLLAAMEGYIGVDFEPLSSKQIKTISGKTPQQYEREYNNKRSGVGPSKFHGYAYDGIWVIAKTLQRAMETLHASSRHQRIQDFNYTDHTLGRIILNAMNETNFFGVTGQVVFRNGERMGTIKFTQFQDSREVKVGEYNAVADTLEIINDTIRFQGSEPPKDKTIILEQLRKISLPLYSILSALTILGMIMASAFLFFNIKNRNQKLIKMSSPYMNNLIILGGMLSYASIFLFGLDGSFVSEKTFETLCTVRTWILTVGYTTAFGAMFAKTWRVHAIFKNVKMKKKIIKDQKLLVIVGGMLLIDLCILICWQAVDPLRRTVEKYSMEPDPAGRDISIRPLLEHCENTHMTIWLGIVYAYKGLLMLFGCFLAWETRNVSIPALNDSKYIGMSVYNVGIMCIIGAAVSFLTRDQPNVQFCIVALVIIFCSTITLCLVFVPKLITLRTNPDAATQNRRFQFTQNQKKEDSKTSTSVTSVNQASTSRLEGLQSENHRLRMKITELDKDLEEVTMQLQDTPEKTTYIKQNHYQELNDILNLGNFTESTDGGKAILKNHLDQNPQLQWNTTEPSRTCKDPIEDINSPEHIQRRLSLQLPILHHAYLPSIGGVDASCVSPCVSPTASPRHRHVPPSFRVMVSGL

T1 sequence (P11798 whole entry): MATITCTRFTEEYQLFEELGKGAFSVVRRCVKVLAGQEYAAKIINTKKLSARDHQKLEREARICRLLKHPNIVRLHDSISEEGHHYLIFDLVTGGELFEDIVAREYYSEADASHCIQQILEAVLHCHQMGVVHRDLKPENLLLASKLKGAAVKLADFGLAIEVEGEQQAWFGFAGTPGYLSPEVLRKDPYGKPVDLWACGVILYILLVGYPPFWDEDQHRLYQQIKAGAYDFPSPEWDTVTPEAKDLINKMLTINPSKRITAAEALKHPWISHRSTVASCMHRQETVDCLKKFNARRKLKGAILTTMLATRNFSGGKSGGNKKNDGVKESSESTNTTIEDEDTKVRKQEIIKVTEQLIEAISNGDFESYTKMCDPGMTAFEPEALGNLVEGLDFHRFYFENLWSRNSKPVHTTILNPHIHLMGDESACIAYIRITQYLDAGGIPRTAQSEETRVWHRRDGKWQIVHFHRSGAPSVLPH
Chain of CaMK2a (Homo sapiens, UniProt Q9UQM7) (Q9UQM7 whole entry): as the sequence (P11798 whole entry) above, with N324S counted along it

O=C(O)/C=C1\CCCc2cc(-c3ccccc3)ccc2C1O (stereo not drawn) [Ph-HTBA]
treatment effect on sleep/wake parameters and cataplexy episodes [1]: overall statistical significant effect

NCC(CC(=O)O)c1ccc(Cl)cc1 (stereo not drawn) [baclofen]
efficacy on narcolepsy symptoms [2]: has efficacy on narcolepsy symptoms

O=C(O)C1=CC(O)CC1 (stereo not drawn) [HOCPCA, 3-hydroxycyclopent-1-enecarboxylic acid]
cataplexy ([3]; day 8, p=0.044): decreases cataplexy significantly | cataplexy ([3]; day 15, p=0.010): decreases cataplexy significantly | wakefulness, medium long wake bouts ([3]; p=0.01, two-way ANOVA with post hoc Dunnett): significant decrease of medium long wake bouts

O=C(O)C1=CC(O)CC1 (stereo not drawn) [^3H-HOCPCA]
3H-HOCPCA binding levels in brain slices (CaMK2a [4]): Increased Binding | 3H-HOCPCA binding to mutated CaMK2a compared to wild-type (rat CaMK2a): completely abolished binding

O=C(O)CCCO [GHB]
binding affinity to specific protein in neurons (CaMK2a) (CaMK2a [5]): high affinity (nanomolar to micromolar) | binding affinity to GABAB receptors (GABAB receptors): low affinity (millimolar)
